Assay results: patent publication US20230123334A1, “AMINO LIPID COMPOUND, PREPARATION METHOD THEREFOR, AND APPLICATION THEREOF” (SHENZHEN SHENXIN BIOTECHNOLOGY CO., LTD., priority 2020, published 2023)

What was measured:
[1] = test system: HEK293 cells; experiment: Preliminary screening as mRNA vectors, EGFP mRNA transfection of HEK293 cells; assay type: cell-based; conditions: HEK293 cells, 96-well plates, EGFP mRNA 50 ng per well; percentage of GFP fluorescent cells relative to total number of cells (Hoechst)
Outline: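 Each well of HEK293 cells received 50 ng of EGFP mRNA. Efficiency was expressed as percent GFP-expressing cells over Hoechst-defined total cell number.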

[2] = test system: HEK293 cells; experiment: Preliminary screening as DNA vectors, GFP transfection of HEK293 cells; assay type: cell-based; conditions: HEK293 cells; lipid/DOPE liposome with 75 ng plasmid DNA (psin-EGFP-IRES-Puro); number of cells expressing GFP divided by total number of nuclei (Hoechst)
Outline: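 Lipid + DOPE liposomes (NaOAc, pH 5.6) complexed w/ 75 ng psin-EGFP-IRES-Puro, 30 min RT; added to 3-5×10^4 HEK293/well, 37° C. Hoechst 0.2 μg/mL at 20-24 h, imaged after further 20-24 h. Efficiency = GFP+ cells / total nuclei.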

Row | Compound | Absolute mRNA transfection efficiency in HEK293 cells [1] | Absolute DNA transfection efficiency in HEK293 cells [2]
1 | CCCCCCCCCCCCSc1nc(NCC2CCN(C)CC2)nc(SCCCCCCCCCCCC)n1 [Compound S12S12D10] | 12.8% | 2.7%
2 | CCCCCCCCCCCCCCCNc1nc(NCCCCCCCC)nc(NCCN(C)C)n1 [Compound N8N15D1] | 0.7% | 1.5%
3 | CCCCCCCCCCCCCCCCCCSc1nc(NCCCN2CCOCC2)nc(SCCCCCCCCCCCCCCCCCC)n1 [Compound S18S18D8] | 0.0% | 0.0%
4 | CCCCCCCCCCCCCCSc1nc(NCCCN2CCOCC2)nc(SCCCCCCCCCCC)n1 [Compound S11S14D8] | 4.2% | 8.8%
5 | CCCCCCCCCCCCCCCCCCSc1nc(NCCN(C)C)nc(SCCCCCCCCCCCC)n1 [Compound S12S18D1] | 0.0% | 0.0%
6 | CCCCCCCCCCCCCCCCCCNc1nc(NCCCCCCCCCCCCCCCCCC)nc(NCCN2CCCCC2)n1 [Compound N18N18D4] | 0.0% | 0.9%
7 | CCCCCCCCCNc1nc(NCCCCCC)nc(NCC2CCN(C)CC2)n1 [Compound N6N9D10] | 0.3% | 0.0%
8 | CCCCCCCNc1nc(NCCCCCC)nc(NCCN2CCCCC2)n1 [Compound N6N7D4] | 0.0% | 0.0%
9 | CCCCCCCCCCCCCCCCCCSc1nc(NCCN(C)C)nc(SCCCCCCCCCC)n1 [Compound S10S18D1] | 3.5% | 9.9%
10 | CCCCCCCCCCCCCCCCCCNc1nc(NCCCCCCCCCCC)nc(NCCN2CCCCC2)n1 [Compound N11N18D4] | 2.3% | 1.9%
11 | CCCCCCCCCCCCNc1nc(NCCCCCCCCCCCC)nc(NCCCN2CCOCC2)n1 [Compound N12N12D8] | 0.3% | 0.0%
12 | CCCCCCCCCCCCNc1nc(NCCCCCCCCCCCC)nc(NCCN(CC)CC)n1 [Compound N12N12D7] | 0.6% | 0.1%
13 | CCCCCCCCCCCCCCSc1nc(NCCN2CCOCC2)nc(SCCCCCCCC)n1 [Compound S8S14D2] | 0.4% | 18.5%
14 | CCCCCCCCCCCCCCCSc1nc(NCCN(C)C)nc(SCCCCCCCC)n1 [Compound S8S15D1] | 0.4% | 8.1%
15 | CCCCCCCCCCCCCCCCSc1nc(NCC2CCN(C)CC2)nc(SCCCCCCCC)n1 [Compound S8S16D10] | 98.3% | 75.2%
16 | CCCCCCCCCCCCCNc1nc(NCCCCCCCCCCCC)nc(NCCN(CC)CC)n1 [Compound N12N13D7] | 0.3% | 0.2%
17 | CCCCCCCCCCCCCCCCNc1nc(NCCCCCCCCCCCCC)nc(NCCCN2CCN(C)CC2)n1 [Compound N13N16D9] | 1.4% | 0.0%
18 | CCCCCCCCCCCCCCCCCCNc1nc(NCCCCCCCCCCC)nc(NCCCN2CCOCC2)n1 [Compound N11N18D8] | 1.2% | 2.2%
19 | CCCCCCCCCCCCCNc1nc(NCCN(CC)CC)nc(N(CCCCCCCCCCCC)CCCCCCCCCCCC)n1 [N13^2N12D7] | 2.9% | 0.2%
20 | CCCCCCCCCCCCCNc1nc(NCCCCCCCCC)nc(NCCCN2CCOCC2)n1 [Compound N9N13D8] | 0.0% | 0.0%
21 | CCCCCCCCCCCCCCSc1nc(NCCN2CCCCC2)nc(SCCCCCCCC)n1 [Compound S8S14D4] | 3.1% | 9.3%
22 | CCCCCCCCCCCCCCCCCCNc1nc(NCCN2CCCC2)nc(N(CCCCCCCCCCCC)CCCCCCCCCCCC)n1 [N18^2N12D3] | 3.4% | 1.5%
23 | CCCCCCCCCCCCNc1nc(NCCCCCCCCCCCC)nc(NCCN2CCCC2)n1 [Compound N12N12D3] | 3.8% | 1.9%
24 | CCCCCCCCCCCCCCSc1nc(NCCN2CCOCC2)nc(SCCCCCCCCCCC)n1 [Compound S11S14D2] | 0.0% | 0.7%
